Structures can show the parent of a compound that is named as a salt.
Target: T1, human urotensin II receptor (Homo sapiens, UniProt Q9UKP6)
T1 construct: expressed in transfected cells; host or cells: NIH3T3 cells
T1 sequence (Q9UKP6 1-389): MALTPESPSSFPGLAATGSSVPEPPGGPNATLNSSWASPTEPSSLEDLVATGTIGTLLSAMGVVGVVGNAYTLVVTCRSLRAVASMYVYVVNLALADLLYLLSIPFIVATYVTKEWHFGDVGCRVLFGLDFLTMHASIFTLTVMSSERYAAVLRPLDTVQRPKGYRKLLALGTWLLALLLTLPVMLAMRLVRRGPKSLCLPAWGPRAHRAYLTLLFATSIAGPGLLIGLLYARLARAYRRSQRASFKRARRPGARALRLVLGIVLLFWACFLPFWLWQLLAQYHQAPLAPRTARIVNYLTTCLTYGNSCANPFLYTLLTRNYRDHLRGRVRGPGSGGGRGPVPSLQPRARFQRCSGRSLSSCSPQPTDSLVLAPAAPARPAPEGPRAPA
Experiment: Receptor Selection and Amplification (R-SAT) functional assay, NIH3T3 cells transfected with human urotensin II receptor and β-galactosidase marker
Assay type: cell-based
Details: for Emax: NIH3T3, Table 4, % efficacy normalized to UII at 100%; for EC50 / pEC50: eight doses in triplicate
Protocol: The functional receptor assay, Receptor Selection and Amplification Technology (R-SAT™), was used (with minor modifications from the procedure described previously (Brann, M. R. U.S. Pat. No. 5,707,798, 1998; Chem. Abstr. 1998, 128, 111548) to screen compounds for efficacy at the UII receptor. The RSAT assay was conducted as described herein.
Briefly, NIH3T3 cells were grown in tissue culture treated rollerbottles to 40-80% confluence in Dulbecco's modified Eagle's medium (DMEM) supplemented with 10% bovine calf serum (Hyclone) and 1% penicillin/streptomycin/glutamine (Invitrogen). Cells were transfected for 12-18 hours with the human urotensin II receptor and the β-galactosidase marker. After transfection, the cells were trypsinized, harvested and frozen in DMEM containing 10% DMSO. Frozen cells were later thawed and tested for a response to a control compound to perform quality control before initiation of pharmacological testing, ensuring the correct pharmacological response and sufficient sensitivity. To initiate the pharmacological assay, cells were thawed rapidly and prepared in DMEM media containing 0.4% calf serum (Hyclone), 30% UltraCulture (Biowhittaker), and 1% penicillin/streptomycin/glutamine (Invitrogen), and then plated at 10,000-40,000 cells per well of a 96½ area plate that contained either the test compounds or reference ligands. Cells were then grown in a humidified atmosphere with 5% ambient CO2 for five days. Media was then removed from the plates and marker gene activity was measured by the addition of the beta-galactosidase substrate ONPG (in PBS with 5% NP-40). The resulting colorimetric reaction was measured in a spectrophotometric plate reader (Titertek Inc.) at […].
pEC50 represents the negative logarithm of the concentration of ligand that caused 50% activation of the basal receptor response. Percent activation was calculated as the difference between the absorbance measurements in the absence of added ligand compared with that in the presence of saturating concentrations of ligand normalized to the absorbance difference for the reference ligand, which was assigned a value of 100%.
Results were determined in R-SAT assays and are expressed as pEC50, the negative of the log EC50 in molarity. Results are the average±standard deviation of 2-X determinations of the EC50 where each compound was tested in eight doses in triplicate.

[1] = Table 4, negative of the log EC50 in molarity, average ± standard deviation of 2-5 determinations
[2] = Table 3, negative of the log EC50 in molarity, average ± standard deviation (or range) of determinations
[3] = Table 3, percent activation normalized to the reference ligand assigned 100%

Row | Molecule | Emax [%] | EC50 [1] [nM] | also measured
1 | COc1ccc(CCC(=O)NC(CCN(C)C)c2ccc(Cl)cc2)cc1 (stereo not shown) [A6, N-[1-(4-Chlorophenyl)-3-dimethylamino-propyl]-3-(4-methoxyphenyl)propanamide HCl] | 101 ± 12 | 2950 | –
2 | CN(C)CCC(NC(=O)/C=C/c1ccccc1)c1ccc(Cl)cc1 (stereo not shown) [A7, N-[1-(4-Chlorophenyl)-3-dimethylamino-propyl]-3-cinnamic amide HCl] | 128 ± 10 | 427 | –
3 | CN(C)CCC(NC(=O)C=Cc1ccc(C(F)(F)F)cc1)c1ccc(Cl)cc1 (stereo not shown) [A8, N-[1-(4-Chlorophenyl)-3-dimethylamino-propyl]-4-trifluoromethyl-cinnamic amide HCl] | 133 ± 3 | 129 | –
4 | COc1ccc(C=CC(=O)NC(CCN(C)C)c2ccc(Cl)cc2)cc1 (stereo not shown) [A9, N-[1-(4-Chlorophenyl)-3-dimethylamino-propyl]-4-methoxy-cinnamic amide HCl] | 99 ± 4 | 513 | –
5 | CN(C)CCC(NC(=O)C#Cc1ccccc1)c1ccc(Cl)cc1 (stereo not shown) [A10, N-[1-(4-Chlorophenyl)-3-dimethylamino-propyl]-3-phenylpropiolic amide HCl] | 124 ± 6 | 398 | –
6 | Cc1ccc(C(CCN(C)C)NC(=O)Cc2ccccc2)cc1 (stereo not shown) [B1, N-[3-Dimethylamino-1-(4-methylphenyl)propyl]-2-phenylacetamide HCl] | 83 ± 11 | 4170 | –
7 | Cc1ccc(C(CCN(C)C)NC(=O)Cc2ccc(C(F)(F)F)cc2)cc1 (stereo not shown) [B2, N-[3-Dimethylamino-1-(4-methylphenyl)propyl]-2-(4-trifluoromethylphenyl)acetamide HCl] | 25 ± 4 | 1120 | –
8 | COc1ccc(CC(=O)NC(CCN(C)C)c2ccc(C)cc2)cc1 (stereo not shown) [B3, N-[3-Dimethylamino-1-(4-methylphenyl)propyl]-2-(4-methoxyphenyl)acetamide HCl] | 62 ± 5 | 5890 | –
9 | Cc1ccc(C(CCN(C)C)NC(=O)CCc2ccccc2)cc1 (stereo not shown) [B4, N-[3-Dimethylamino-1-(4-methylphenyl)propyl]-3-phenylpropionamide HCl] | 73 ± 9 | 4570 | –
10 | Cc1ccc(C(CCN(C)C)NC(=O)CCc2ccc(C(F)(F)F)cc2)cc1 (stereo not shown) [B5, N-[3-Dimethylamino-1-(4-methylphenyl)propyl]-3-(4-trifluoromethylphenyl) propionamide HCl] | 60 ± 6 | 2290 | –
11 | COc1ccc(CCC(=O)NC(CCN(C)C)c2ccc(C)cc2)cc1 (stereo not shown) [B6, N-[3-Dimethylamino-1-(4-methylphenyl)propyl]-3-(4-methoxyphenyl)propionamide HCl] | 67 ± 14 | 5370 | –
12 | Cc1ccc(C(CCN(C)C)NC(=O)C=Cc2ccccc2)cc1 (stereo not shown) [B7, N-[3-Dimethylamino-1-(4-methylphenyl)propyl]cinnamic amide] | 97 ± 6 | 1550 | –
13 | Cc1ccc(C(CCN(C)C)NC(=O)C=Cc2ccc(C(F)(F)F)cc2)cc1 (stereo not shown) [B8, N-[3-Dimethylamino-1-(4-methylphenyl)propyl]-4-trifluoromethyl-cinnamic amide HCl] | 96 ± 1 | 437 | –
14 | COc1ccc(C=CC(=O)NC(CCN(C)C)c2ccc(C)cc2)cc1 (stereo not shown) [B9, N-[3-Dimethylamino-1-(4-methylphenyl)propyl]-4-methoxy-cinnamic amide HCl] | 79 ± 14 | 2000 | –
15 | Cc1ccc(C(CCN(C)C)NC(=O)C#Cc2ccccc2)cc1 (stereo not shown) [B10, N-[3-Dimethylamino-1-(4-methylphenyl)propyl]-3-phenylpropiolic amide] | 131 | 3090 | –
16 | CN(C)CCC(NC(=O)Cc1ccccc1)c1ccc2ccccc2c1 (stereo not shown) [C1, N-[3-Dimethylamino-1-(2-naphthyl)propyl]-2-phenylacetamide HCl] | 121 ± 31 | 1740 | –
17 | CN(C)CCC(NC(=O)Cc1ccc(C(F)(F)F)cc1)c1ccc2ccccc2c1 (stereo not shown) [C2, N-[3-Dimethylamino-1-(2-naphthyl)propyl]-2-(4-trifluoromethylphenyl)acetamide HCl] | 40 ± 3 | 575 | –
18 | CN(C)CCC(NC(=O)CCc1ccccc1)c1ccc2ccccc2c1 (stereo not shown) [C4, N-[3-Dimethylamino-1-(2-naphthyl)propyl]-3-phenyl-propionamide HCl] | 107 ± 22 | 603 | –
19 | CC(C(=O)NC(CCN(C)C)c1ccc2ccccc2c1)c1ccc(C(F)(F)F)cc1 (stereo not shown) [C5, N-[3-Dimethylamino-1-(2-naphthyl)propyl]-2-(4-trifluoromethylphenyl)propionamide HCl] | 75 ± 1 | 372 | –
20 | COc1ccc(CCC(=O)NC(CCN(C)C)c2ccc3ccccc3c2)cc1.Cl (stereo not shown) [C6] | – | – | Efficacy (Table 4, % efficacy normalized to UII at 100%): 113 ± 9%; pEC50 [1]: 5.85 ± 0.11
21 | CN(C)CCC(NC(=O)/C=C/c1ccccc1)c1ccc2ccccc2c1 (stereo not shown) [C7, N-[3-Dimethylamino-1-(2-naphthyl)propyl]-3-cinnamic amide HCl] | 116 ± 3 | 589 | –
22 | CN(C)CCC(NC(=O)C=Cc1ccc(C(F)(F)F)cc1)c1ccc2ccccc2c1 (stereo not shown) [C8, N-[3-Dimethylamino-1-(2-naphthyl)propyl]-4-trifluoromethyl-cinnamic amide HCl] | 117 ± 1 | 135 | –
23 | COc1ccc(C=CC(=O)NC(CCN(C)C)c2ccc3ccccc3c2)cc1 (stereo not shown) [C9, N-[3-Dimethylamino-1-(2-naphthyl)propyl]-4-methoxy-cinnamic amide HCl] | 106 ± 16 | 380 | –
24 | CN(C)CCC(NC(=O)C#Cc1ccccc1)c1ccc2ccccc2c1 (stereo not shown) [C10, N-[3-Dimethylamino-1-(2-naphthyl)propyl]-3-phenylpropiolic amide HCl] | 115 ± 14 | 457 | –
25 | (+)-N-[1-Chlorophenyl)-3-dimethylaminopropyl]-(R)-2-methoxy-2-phenyl-acetamide oxalate [(+) 5s] | – | – | pEC50 [2]: 5.30 ± 0.07; Efficacy [3]: 112 ± 22%
26 | N-[1-(4-Chlorophenyl)-3-dimethylaminopropyloxycarbonyl]-4-phenyl-amine [7f] | – | – | pEC50 [2]: 6.44-6.67; Efficacy [3]: 43-75%

Source: patent US20070043104A1, “UII-modulating compounds and their use” (priority 2005, published 2007)
